The values below come from the NIST ThermoML archive (doi:10.1016/j.jct.2005.07.006).

Numbers after ± are expanded uncertainties.

For series [1] the following is noted: Crystal; DTA.
Series [2] can be described thus: Molar enthalpy of transition or fusion. The note with it: Crystal; DSC.

Turning to `N#Cc1nccnc1C#N` [2,3-pyrazinedicarbonitrile], the Triple point temperature in series [1] stood at 405.06 ± 0.39 K. Besides, in series [2], the “Molar enthalpy of transition or fusion” value amounted to 4.73 ± 0.179 kcal/mol.
